These are literature values, as cited in patent publication US12472172B2, “Lomitapide for use in methods of treating hyperlipidemia and hypercholesterolemia in pediatric patients” (Amryt Pharmaceuticals Inc., priority 2020, dated 2025).

SMILES strings stand for the structures.

The conditions of this data set: adult.

With `O=C(NC1CCN(CCCCC2(C(=O)NCC(F)(F)F)c3ccccc3-c3ccccc32)CC1)c1ccccc1-c1ccc(C(F)(F)F)cc1` [lomitapide, N-(2,2,2-trifluoroethyl)-9-[4-[4-[[[4′(trifluoromethyl)[1,1′-biphenyl]-2-yl]carbonyl]amino]-1-piperidinyl]butyl]-9H-fluorene-9-carboxamide], the “previously used fixed Qgut input” value is 17.9 L/h.
